Data reported in ChEMBL document CHEMBL1132331, “Synthesis and biological activity of the superestrogen (E)-17-oximino-3-O-sulfamoyl-1,3,5(10)-estratriene: x-ray crystal structure of (E)-17-oximino-3-hydroxy-1,3,5(10)-estratriene” (J Med Chem, 1999).

What was measured:
Rattus norvegicus = organism: Rattus norvegicus; experiment: Effect on uterine weight gain in ovariectomized rat, expressed as uterine weight/total body weight X100 (0.036+/-0.001); format: functional
Steryl-sulfatase = target: T1, Steryl-sulfatase (Homo sapiens, UniProt P08842); experiment: In vitro inhibition of estrone sulfatase in placental microsomes; parameters: species or system Placenta
T1 sequence (P08842 whole entry): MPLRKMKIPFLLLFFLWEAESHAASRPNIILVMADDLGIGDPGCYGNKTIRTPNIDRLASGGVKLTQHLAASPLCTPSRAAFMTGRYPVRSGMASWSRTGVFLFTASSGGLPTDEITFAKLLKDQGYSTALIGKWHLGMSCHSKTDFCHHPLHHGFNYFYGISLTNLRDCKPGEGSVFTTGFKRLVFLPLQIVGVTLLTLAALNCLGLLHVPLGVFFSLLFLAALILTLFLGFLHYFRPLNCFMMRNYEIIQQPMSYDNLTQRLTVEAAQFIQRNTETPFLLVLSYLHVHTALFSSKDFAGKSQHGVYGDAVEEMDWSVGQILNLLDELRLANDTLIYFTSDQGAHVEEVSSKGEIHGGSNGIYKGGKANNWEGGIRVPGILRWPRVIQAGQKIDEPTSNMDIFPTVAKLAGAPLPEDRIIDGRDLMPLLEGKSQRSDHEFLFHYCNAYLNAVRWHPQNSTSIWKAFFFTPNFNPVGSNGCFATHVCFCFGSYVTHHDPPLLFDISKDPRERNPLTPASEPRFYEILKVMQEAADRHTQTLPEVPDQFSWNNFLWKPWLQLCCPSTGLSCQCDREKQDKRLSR

[1] = target: T2, Steryl-sulfatase (Rattus norvegicus) (UniProt P15589); experiment: In vivo inhibition of estrone sulfatase in rat liver after oral administration; format: organism-based; conditions: concentration not given here
T2 sequence (whole entry): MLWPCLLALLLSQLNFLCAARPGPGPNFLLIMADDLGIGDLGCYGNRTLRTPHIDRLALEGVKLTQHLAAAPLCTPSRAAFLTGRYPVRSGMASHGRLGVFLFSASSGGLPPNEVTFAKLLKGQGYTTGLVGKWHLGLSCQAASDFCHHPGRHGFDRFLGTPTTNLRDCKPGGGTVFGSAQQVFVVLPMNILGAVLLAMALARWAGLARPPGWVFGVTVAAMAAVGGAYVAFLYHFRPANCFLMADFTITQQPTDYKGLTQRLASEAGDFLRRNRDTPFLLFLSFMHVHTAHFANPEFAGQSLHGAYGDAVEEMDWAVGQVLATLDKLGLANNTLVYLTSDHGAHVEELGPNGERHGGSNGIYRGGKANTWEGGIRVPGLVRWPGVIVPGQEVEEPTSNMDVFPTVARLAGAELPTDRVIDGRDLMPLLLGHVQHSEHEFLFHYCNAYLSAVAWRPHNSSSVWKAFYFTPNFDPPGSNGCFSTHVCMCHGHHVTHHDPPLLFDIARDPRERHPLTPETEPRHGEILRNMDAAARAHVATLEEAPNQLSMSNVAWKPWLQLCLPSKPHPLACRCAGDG

[2] = target: T3, Steryl-sulfatase (Homo sapiens) (UniProt P08842); experiment: Inhibition of estrone sulfatase in MCF-7 breast cancer cells at 0.1 uM; format: cell-based; conditions: MCF7
T3 sequence (whole entry): T1 sequence (P08842 whole entry)

Question: What does the source list for `C[C@]12CC[C@@H]3c4ccc(OS(N)(=O)=O)cc4CC[C@H]3[C@@H]1CCC2=O` [EMATE]?
Answer: Average uterine weight (Rattus norvegicus): 0.11; IC50 (Steryl-sulfatase): 93 nM; inhibition [1]: 99%

Question: Which Average uterine weight (Rattus norvegicus) does the source give for `C[C@]12CC[C@@H]3c4ccc(OS(N)(=O)=O)cc4CC[C@H]3[C@@H]1CC/C2=N\O` here?
Answer: 0.15

Question: What about the inhibition [2] of the same compound?
Answer: 99%

Question: What about the IC50 (Steryl-sulfatase) of the same compound?
Answer: 80 nM

Question: And the inhibition [1]?
Answer: 99%
